Experiment in all cases: KINOMEscan
Common to all, as to assay type: binding
Common to all, as to settings: read-out: % control activity remaining

For assay [1], the target named is T1, ADCK4 (Homo sapiens, UniProt Q96D53).
T1 construct: purchased Eurofins DiscoverX KINOMEscan
T1 sequence (Q96D53 1-544): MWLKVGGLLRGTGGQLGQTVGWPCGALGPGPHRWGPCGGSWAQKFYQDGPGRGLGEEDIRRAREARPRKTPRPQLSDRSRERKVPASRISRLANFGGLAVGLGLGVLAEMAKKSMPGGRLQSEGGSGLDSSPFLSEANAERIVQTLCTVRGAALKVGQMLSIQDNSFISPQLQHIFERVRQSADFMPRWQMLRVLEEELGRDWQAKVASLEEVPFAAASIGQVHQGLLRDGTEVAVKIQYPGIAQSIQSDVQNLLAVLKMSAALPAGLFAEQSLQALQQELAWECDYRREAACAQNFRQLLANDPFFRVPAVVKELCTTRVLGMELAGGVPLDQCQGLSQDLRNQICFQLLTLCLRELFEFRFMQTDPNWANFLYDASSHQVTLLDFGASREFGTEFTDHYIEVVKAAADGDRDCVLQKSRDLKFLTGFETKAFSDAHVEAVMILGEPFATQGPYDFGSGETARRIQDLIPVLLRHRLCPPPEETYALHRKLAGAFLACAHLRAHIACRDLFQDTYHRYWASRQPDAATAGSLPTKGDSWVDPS

For assay [2], the target named is T2, FLT3(K663Q) (Homo sapiens, UniProt P36888, K663Q).
T2 construct: purchased Eurofins DiscoverX KINOMEscan
T2 sequence (P36888 27-993 K663Q): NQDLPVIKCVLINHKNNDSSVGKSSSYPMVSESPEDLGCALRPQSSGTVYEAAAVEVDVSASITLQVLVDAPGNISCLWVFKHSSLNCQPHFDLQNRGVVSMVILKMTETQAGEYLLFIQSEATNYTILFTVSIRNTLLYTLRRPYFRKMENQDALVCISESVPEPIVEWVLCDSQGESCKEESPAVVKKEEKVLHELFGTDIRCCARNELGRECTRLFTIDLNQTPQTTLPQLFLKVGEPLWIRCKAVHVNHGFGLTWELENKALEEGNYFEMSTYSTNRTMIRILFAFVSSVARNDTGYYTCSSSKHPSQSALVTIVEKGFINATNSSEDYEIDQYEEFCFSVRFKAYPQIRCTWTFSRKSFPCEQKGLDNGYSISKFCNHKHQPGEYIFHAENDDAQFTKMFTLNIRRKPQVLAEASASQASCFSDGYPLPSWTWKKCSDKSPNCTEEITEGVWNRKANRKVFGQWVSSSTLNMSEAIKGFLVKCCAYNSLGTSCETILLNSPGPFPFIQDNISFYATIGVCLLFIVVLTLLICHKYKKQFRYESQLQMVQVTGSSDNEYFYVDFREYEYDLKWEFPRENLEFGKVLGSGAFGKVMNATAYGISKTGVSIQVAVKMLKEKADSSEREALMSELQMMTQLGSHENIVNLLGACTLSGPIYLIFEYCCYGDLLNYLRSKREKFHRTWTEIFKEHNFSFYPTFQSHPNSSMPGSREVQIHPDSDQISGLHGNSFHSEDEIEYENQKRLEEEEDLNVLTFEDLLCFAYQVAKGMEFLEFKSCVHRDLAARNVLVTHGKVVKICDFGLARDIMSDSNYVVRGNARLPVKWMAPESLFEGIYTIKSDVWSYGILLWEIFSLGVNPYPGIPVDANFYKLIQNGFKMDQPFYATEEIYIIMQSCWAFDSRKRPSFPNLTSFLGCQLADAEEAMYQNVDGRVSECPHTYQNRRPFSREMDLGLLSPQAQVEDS

Assay [3] deals with T3, ABL1(H396P)-phosphorylated (Homo sapiens, UniProt P00519, H396P).
T3 construct: purchased Eurofins DiscoverX KINOMEscan

Assay [4] deals with T4, FGFR3 (Homo sapiens, UniProt P22607).
T4 construct: purchased Eurofins DiscoverX KINOMEscan

The target in assay [5] is T5, CDKL1 (Homo sapiens, UniProt Q00532).
T5 construct: purchased Eurofins DiscoverX KINOMEscan

Assay [6] concerns the target T6, ABL2 (Homo sapiens, UniProt P42684).
T6 construct: purchased Eurofins DiscoverX KINOMEscan

T6 sequence (P42684 whole entry): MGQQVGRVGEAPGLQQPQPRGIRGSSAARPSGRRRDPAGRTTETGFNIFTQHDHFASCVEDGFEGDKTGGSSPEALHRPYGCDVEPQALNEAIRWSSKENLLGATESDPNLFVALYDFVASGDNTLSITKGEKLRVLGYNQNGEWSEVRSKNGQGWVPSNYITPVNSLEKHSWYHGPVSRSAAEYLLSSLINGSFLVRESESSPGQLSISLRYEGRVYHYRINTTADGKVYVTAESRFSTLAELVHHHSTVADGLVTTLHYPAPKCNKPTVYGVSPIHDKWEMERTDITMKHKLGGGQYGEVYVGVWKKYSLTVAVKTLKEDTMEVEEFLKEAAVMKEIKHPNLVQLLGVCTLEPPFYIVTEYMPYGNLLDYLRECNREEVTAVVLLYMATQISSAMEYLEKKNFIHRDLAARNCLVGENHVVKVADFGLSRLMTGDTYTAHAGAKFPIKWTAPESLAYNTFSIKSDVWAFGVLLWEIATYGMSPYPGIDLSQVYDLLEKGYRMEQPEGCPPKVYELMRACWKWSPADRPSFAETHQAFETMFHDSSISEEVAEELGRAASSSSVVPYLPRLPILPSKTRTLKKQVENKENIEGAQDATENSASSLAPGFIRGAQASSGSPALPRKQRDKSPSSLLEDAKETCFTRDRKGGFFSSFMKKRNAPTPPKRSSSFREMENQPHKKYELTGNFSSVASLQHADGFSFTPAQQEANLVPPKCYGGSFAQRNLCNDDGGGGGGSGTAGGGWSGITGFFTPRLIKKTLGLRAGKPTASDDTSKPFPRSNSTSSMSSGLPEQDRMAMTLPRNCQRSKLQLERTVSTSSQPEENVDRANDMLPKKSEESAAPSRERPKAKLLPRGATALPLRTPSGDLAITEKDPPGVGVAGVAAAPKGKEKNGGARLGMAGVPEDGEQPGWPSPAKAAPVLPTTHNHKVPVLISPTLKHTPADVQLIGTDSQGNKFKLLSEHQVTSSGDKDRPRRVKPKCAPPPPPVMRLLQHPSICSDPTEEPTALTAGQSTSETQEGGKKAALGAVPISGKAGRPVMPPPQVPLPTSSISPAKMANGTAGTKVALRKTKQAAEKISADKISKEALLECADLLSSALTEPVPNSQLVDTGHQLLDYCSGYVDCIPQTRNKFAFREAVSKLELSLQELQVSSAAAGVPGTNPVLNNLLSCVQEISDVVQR
T5 sequence (Q00532 whole entry): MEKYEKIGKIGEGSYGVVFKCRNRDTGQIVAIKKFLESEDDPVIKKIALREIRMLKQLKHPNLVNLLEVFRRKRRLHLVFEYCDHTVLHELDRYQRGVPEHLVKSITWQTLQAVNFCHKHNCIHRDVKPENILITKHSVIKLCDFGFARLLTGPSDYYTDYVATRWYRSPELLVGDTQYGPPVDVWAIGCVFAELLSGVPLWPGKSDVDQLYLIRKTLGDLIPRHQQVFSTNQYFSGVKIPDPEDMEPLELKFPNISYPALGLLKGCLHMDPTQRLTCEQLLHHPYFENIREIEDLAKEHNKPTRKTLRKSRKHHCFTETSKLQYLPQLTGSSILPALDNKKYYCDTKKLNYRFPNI
T4 sequence (P22607 23-806): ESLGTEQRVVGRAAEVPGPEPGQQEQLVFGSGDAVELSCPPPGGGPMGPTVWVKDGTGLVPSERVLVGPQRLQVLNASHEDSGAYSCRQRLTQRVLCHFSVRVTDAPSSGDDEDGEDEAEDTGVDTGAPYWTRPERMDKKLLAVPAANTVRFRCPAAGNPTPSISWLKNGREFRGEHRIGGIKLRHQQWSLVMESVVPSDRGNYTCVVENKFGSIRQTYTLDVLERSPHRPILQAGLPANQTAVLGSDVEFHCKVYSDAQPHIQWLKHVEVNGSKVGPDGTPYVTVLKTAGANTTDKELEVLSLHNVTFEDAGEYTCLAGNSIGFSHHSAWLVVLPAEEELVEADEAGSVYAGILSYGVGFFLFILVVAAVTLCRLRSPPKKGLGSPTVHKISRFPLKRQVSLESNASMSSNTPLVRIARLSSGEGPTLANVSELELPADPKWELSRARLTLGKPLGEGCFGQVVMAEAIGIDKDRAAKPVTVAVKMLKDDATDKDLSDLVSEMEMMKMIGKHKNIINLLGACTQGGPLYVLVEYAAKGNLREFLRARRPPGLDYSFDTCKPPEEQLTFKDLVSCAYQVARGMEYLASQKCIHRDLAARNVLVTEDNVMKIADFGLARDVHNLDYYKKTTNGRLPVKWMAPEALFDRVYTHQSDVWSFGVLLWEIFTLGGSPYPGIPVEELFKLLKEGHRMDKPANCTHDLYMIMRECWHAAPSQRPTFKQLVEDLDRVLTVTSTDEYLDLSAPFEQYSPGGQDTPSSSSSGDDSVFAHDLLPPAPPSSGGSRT

As to `Clc1cc(NCC2CC2)c2ncc(-c3ccc4[nH]ncc4c3)n2n1` [compound 2, 6-Chloro-N-(cyclopropylmethyl)-3-(1H-indazol-5-yl)imidazo[1,2-b]pyridazin-8-amine], the remaining binding at 1 µM in assay [1] came out at 93%; in assay [2] it was 3.8%; in assay [3], 73%; in assay [4], 90%; in assay [5], 74%; in assay [6] it was 100%.
With `O=C(CN1CCOCC1)N[C@H]1CC[C@H](Nc2cc(Cl)nn3c(-c4ccc5[nH]ncc5c4)cnc23)CC1` [compound 26], the remaining binding at 1 µM in assay [1] was determined as 84%; in assay [2] it was 13%; in assay [3] it was 46%; in assay [4], 94%; in assay [5] it was 90%; in assay [6], 56%.
`CN1CCC(CNc2cc(Cl)nn3c(-c4cc5nc(Nc6ccccc6)[nH]c5cc4F)cnc23)CC1` [compound 31, 6-Chloro-3-(6-fluoro-2-(phenylamino)-1H-benzo[d]imidazol-5-yl)-N-((1-methylpiperidin-4-yl)methyl)imidazo[1,2-b]pyridazin-8-amine]: the remaining binding at 1 µM in assay [1] was determined as 77%; in assay [2], 83%; in assay [3], 67%; in assay [4], 91%; in assay [5], 67%; in assay [6], 92%.
